Columns and labels:
Format in all cases: in vivo
[1] = system: AMAPA; test: Post-emergence biological efficacy; conditions: Amaranthus palmeri, 312 h, evaluated after 13 days, read-out: damage to plant (100=total damage to plant; 0=no damage to plant)
Description: (§1) Seeds of weeds and/or crops were sown in standard soil in pots. After cultivation for 14 days under controlled conditions in a glasshouse (at 24/19° C., day/night; 16 hours light), the plants were sprayed with an aqueous spray solution derived from the formulation of the technical active ingredient in a small amount of acetone and a special solvent and emulsifier mixture referred to as IF50 (11.12% Emulsogen EL360 TM+44.44% N-methylpyrrolidone+44.44% Dowanol DPM glycol ether), to create a 50g/l solution which was then diluted using 0.2% Genapol XO80 as diluent to give the desired final dose of test compound.
(§2) The test plants were then grown under controlled conditions in the glasshouse (at 24/18° C., day/night; 15 hours light; 50% humidity)and watered twice daily. After 13 days the test was evaluated (100=total damage to plant; 0=no damage to plant).

[2] = system: CHEAL; test: Post-emergence biological efficacy; conditions: Chenopodium album, 312 h, evaluated after 13 days, read-out: damage to plant (100=total damage to plant; 0=no damage to plant)
Description: as §1, §2

[3] = system: LOLPE; test: Post-emergence biological efficacy; conditions: Lolium perenne, 312 h, evaluated after 13 days, read-out: damage to plant (100=total damage to plant; 0=no damage to plant)
Description: as §1, §2

[4] = system: ECHCG; test: Post-emergence biological efficacy; conditions: Echinochloa crus-galli, 312 h, evaluated after 13 days, read-out: damage to plant (100=total damage to plant; 0=no damage to plant)
Description: as §1, §2

[5] = system: IPOHE; test: Post-emergence biological efficacy; conditions: Ipomoea hederacea, 312 h, evaluated after 13 days, read-out: damage to plant (100=total damage to plant; 0=no damage to plant)
Description: as §1, §2

[6] = system: ELEIN; test: Post-emergence biological efficacy; conditions: 312 h, evaluated after 13 days, read-out: damage to plant (100=total damage to plant; 0=no damage to plant)
Description: as §1, §2

[7] = system: DIGSA; test: Post-emergence biological efficacy; conditions: Digitaria sanguinalis, 312 h, evaluated after 13 days, read-out: damage to plant (100=total damage to plant; 0=no damage to plant)
Description: as §1, §2

[8] = system: SETFA; test: Post-emergence biological efficacy; conditions: Setaria faberi, 312 h, evaluated after 13 days, read-out: damage to plant (100=total damage to plant; 0=no damage to plant)
Description: as §1, §2

[9] = system: EPHHL; test: Post-emergence biological efficacy; conditions: Euphorbia heterophylla, 312 h, evaluated after 13 days, read-out: damage to plant (100=total damage to plant; 0=no damage to plant)
Description: as §1, §2

[10] = system: AMAPA; test: Pre-emergence biological efficacy; conditions: Amaranthus palmeri, 312 h, evaluated after 13 days, read-out: damage to plant (100=total damage to plant; 0=no damage to plant)
Description: as §1, with “one day” for “14 days”
(§3) The test plants were then grown under controlled conditions in the glasshouse (at 24/18° C., day/night; 15 hours light; 50% humidity) and watered twice daily. After 13 days the test was evaluated (100=total damage to plant; 0=no damage to plant).

[11] = system: LOLPE; test: Pre-emergence biological efficacy; conditions: Lolium perenne, 312 h, evaluated after 13 days, read-out: damage to plant (100=total damage to plant; 0=no damage to plant)
Description: as §1, with “one day” for “14 days”
as §3

[12] = system: ECHCG; test: Pre-emergence biological efficacy; conditions: Echinochloa crus-galli, 312 h, evaluated after 13 days, read-out: damage to plant (100=total damage to plant; 0=no damage to plant)
Description: as §1, with “one day” for “14 days”
as §3

[13] = system: IPOHE; test: Pre-emergence biological efficacy; conditions: Ipomoea hederacea, 312 h, evaluated after 13 days, read-out: damage to plant (100=total damage to plant; 0=no damage to plant)
Description: as §1, with “one day” for “14 days”
as §3

[14] = system: SETFA; test: Pre-emergence biological efficacy; conditions: Setaria faberi, 312 h, evaluated after 13 days, read-out: damage to plant (100=total damage to plant; 0=no damage to plant)
Description: as §1, with “one day” for “14 days”
as §3

[15] = system: EPHHL; test: Pre-emergence biological efficacy; conditions: Euphorbia heterophylla, 312 h, evaluated after 13 days, read-out: damage to plant (100=total damage to plant; 0=no damage to plant)
Description: as §1, with “one day” for “14 days”
as §3

| Structure (SMILES) | pest or weed control at 250 g/ha [1] | pest or weed control at 250 g/ha [2] | pest or weed control at 250 g/ha [3] | pest or weed control at 250 g/ha [4] | pest or weed control at 250 g/ha [5] | pest or weed control at 250 g/ha [6] | pest or weed control at 250 g/ha [7] | pest or weed control at 250 g/ha [8] | pest or weed control at 250 g/ha [9] | pest or weed control at 250 g/ha [10] | pest or weed control at 250 g/ha [11] | pest or weed control at 250 g/ha [12] | pest or weed control at 250 g/ha [13] | pest or weed control at 250 g/ha [14] | pest or weed control at 250 g/ha [15] |
| --- | --- | --- | --- | --- | --- | --- | --- | --- | --- | --- | --- | --- | --- | --- | --- |
| CCOC(=O)C1(C)CC(c2cc(-c3cc(Cl)cnc3F)c(F)cc2Cl)=NO1 (stereo not drawn) [Compound 1-199, Ethyl 3-[2-chloro-5-(5-chloro-2-fluoro-3-pyridyl)-4-fluoro-phenyl]-5-methyl-4H-isoxazole-5-carboxylate] | 100% | 90% | 40% | 70% | 100% | 20% | 50% | 60% | 90% | 80% | 10% | 0% | 0% | 10% | 30% |
| CCOC(=O)C1(C)CC(c2cc(-c3cccnc3F)c(F)cc2Cl)=NO1 (stereo not drawn) [Compound 1-211, Ethyl 3-[2-chloro-4-fluoro-5-(2-fluoro-3-pyridyl)phenyl]-5-methyl-4H-isoxazole-5-carboxylate] | 100% | 90% | 0% | 20% | 50% | 20% | 10% | 20% | 30% | 0% | 0% | 0% | 0% | 0% | 0% |
| CCOC(=O)C1(C)CC(c2cc(-c3cc(C)cnc3F)c(F)cc2Cl)=NO1 (stereo not drawn) [Compound 1-223, Ethyl 3-[2-chloro-4-fluoro-5-(2-fluoro-5-methyl-3-pyridyl)phenyl]-5-methyl-4H-isoxazole-5-carboxylate] | 100% | 80% | 20% | 50% | 100% | 10% | 30% | 80% | 70% | 0% | 0% | 0% | 0% | 0% | 0% |
| CCOC(=O)C1(C)CC(c2cc(-c3cc(C(F)(F)F)cnc3F)c(F)cc2Cl)=NO1 (stereo not drawn) [Compound 1-235, Ethyl 3-[2-chloro-4-fluoro-5-[2-fluoro-5-(trifluoromethyl)-3-pyridyl]phenyl]-5-methyl-4H-isoxazole-5-carboxylate] | 100% | 100% | 60% | 60% | 100% | 100% | 70% | 100% | 100% | 100% | 0% | 0% | 60% | 0% | 50% |
| CCOC(=O)C1(C)CC(c2cc(-c3cccnc3)c(F)cc2Cl)=NO1 (stereo not drawn) [Compound 1-247, Ethyl 3-[2-chloro-4-fluoro-5-(3-pyridyl)phenyl]-5-methyl-4H-isoxazole-5-carboxylate] | 0% | 0% | 0% | 0% | 0% | 10% | 0% | 0% | 10% | 60% | 0% | 0% | 0% | 0% | 0% |
| CCOC(=O)C1(C)CC(c2cc(-c3cnccc3OC)c(F)cc2Cl)=NO1 (stereo not drawn) [Compound 1-259, Ethyl 3-[2-chloro-4-fluoro-5-(4-methoxy-3-pyridyl)phenyl]-5-methyl-4H-isoxazole-5-carboxylate] | 60% | 80% | 0% | 20% | 30% | 20% | 40% | 30% | 20% | 0% | 0% | 0% | 0% | 0% | 0% |
| CCOC(=O)C1(C)CC(c2cc(-c3cncc(Cl)c3)c(F)cc2Cl)=NO1 (stereo not drawn) [Compound 1-271, Ethyl 3-[2-chloro-5-(5-chloro-3-pyridyl)-4-fluoro-phenyl]-5-methyl-4H-isoxazole-5-carboxylate] | 90% | 70% | 0% | 20% | 100% | 20% | 20% | 50% | 40% | 0% | 0% | 0% | 0% | 0% | 0% |
| CCOC(=O)C1(C)CC(c2cc(-c3ccc(C)nc3)c(F)cc2Cl)=NO1 (stereo not drawn) [Compound 1-283, Ethyl 3-[2-chloro-4-fluoro-5-(6-methyl-3-pyridyl)phenyl]-5-methyl-4H-isoxazole-5-carboxylate] | 70% | 30% | 0% | 10% | 40% | 0% | 20% | 20% | 60% | 0% | 0% | 0% | 0% | 0% | 20% |
| CCOC(=O)C1(C)CC(c2cc(-c3ccnc(F)c3)c(F)cc2Cl)=NO1 (stereo not drawn) [Compound 1-295, Ethyl 3-[2-chloro-4-fluoro-5-(2-fluoro-4-pyridyl)phenyl]-5-methyl-4H-isoxazole-5-carboxylate] | 90% | 70% | 0% | 10% | 50% | 10% | 10% | 10% | 50% | 0% | 0% | 0% | 0% | 0% | 0% |

— patent publication US20240124432A1, “HERBICIDAL COMPOUNDS” (SYNGENTA CROP PROTECTION AG, priority 2020, published 2024)
